Reference: patent US20220194938A1, “NOVEL COMPOUNDS AND PHARMACEUTICAL COMPOSITIONS THEREOF FOR THE TREATMENT OF INFLAMMATORY DISORDERS” (GALAPAGOS NV, priority 2019, published 2022)

Assays:
[1] = test system: pooled cryopreserved hepatocytes; assay: Metabolic stability in hepatocytes (mouse); format: in vitro ADME; conditions: 1 μM test compound
Experimental: (§1) 4.6. Metabolic Stability in Hepatocytes
(§2) The aim of this assay is to determine the metabolic stability of the compound in hepatocytes (cryopreserved) of different species. Low hepatocyte stability may result in the formation of unwanted metabolites, high clearance, and therefore is not desirable.
(§3) The decrease in parent was assessed by measuring the percentage remaining by LC-MS/MS analysis.
(§4) A 10 mM stock solution of test compound in DMSO was first diluted in DMSO to 3 mM, and then in modified Krebs-Henseleit buffer (Sigma, K3753) to 5 μM. This compound dilution was added to a suspension of pooled cryopreserved hepatocytes (BioreclamationIVT) at 37° C. under gentle shaking.
(§5) Final reaction conditions were: 1 μM of test compound, 0.03% DMSO, 0.5 million viable hepatocytes/mL, and 75 μL incubation volume.
(§6) Testosterone (1 μM) and 7-hydroxycoumarin (1 μM) were used, respectively as phase I and phase II metabolic reaction controls.
(§7) After 0, 10, 20, 45, 90, 120 and 180 min of incubation, the reaction was terminated with 225 μL of MeCN:MeOH (2:1) containing 100 ng/mL of diclofenac as analytical internal standard. Samples were mixed, centrifuged and the supernatant analyzed by LC-MS/MS.
(§8) The instrument responses (ratios of test compound and internal standard peak areas) were referenced to the zero time point samples (considered as 100%) in order to determine the percentage of compound remaining.
(§9) Plots of percentage compound remaining are used to determine the intrinsic clearance in the hepatocyte incubations using the following equations:
(§10) Scaled Clint[L/h/kg]=Clint[μL/min/10^6 cells]*#(10^6) cells/g liver*60*(1/10^6) Scaled Clint unbound [L/h/kg]=Clint [L/h/kg]/Fu,inc where: fu,inc equals hepatocyte binding, derived from microsomal binding (fu,mic) by following equation: […]

[2] = test system: pooled cryopreserved hepatocytes; assay: Metabolic stability in hepatocytes (human); format: in vitro ADME; conditions: 1 μM test compound
Experimental: as §1, §2, §3, §4, §5, §6, §7, §8, §9, §10

human IRAK-4 = biological target: T1, human IRAK-4 (Homo sapiens, UniProt Q9NWZ3); assay: Phosphorylation IC50 determination for human IRAK-4 (ADP-Glo kinase assay); conditions: human IRAK-4, RIP140 substrate, Km ATP; read-out: IRAK4 ADPglo biochemical assay IC50
T1 construct: purchased Carna Biosciences 09 145
T1 sequence (Q9NWZ3 1-460): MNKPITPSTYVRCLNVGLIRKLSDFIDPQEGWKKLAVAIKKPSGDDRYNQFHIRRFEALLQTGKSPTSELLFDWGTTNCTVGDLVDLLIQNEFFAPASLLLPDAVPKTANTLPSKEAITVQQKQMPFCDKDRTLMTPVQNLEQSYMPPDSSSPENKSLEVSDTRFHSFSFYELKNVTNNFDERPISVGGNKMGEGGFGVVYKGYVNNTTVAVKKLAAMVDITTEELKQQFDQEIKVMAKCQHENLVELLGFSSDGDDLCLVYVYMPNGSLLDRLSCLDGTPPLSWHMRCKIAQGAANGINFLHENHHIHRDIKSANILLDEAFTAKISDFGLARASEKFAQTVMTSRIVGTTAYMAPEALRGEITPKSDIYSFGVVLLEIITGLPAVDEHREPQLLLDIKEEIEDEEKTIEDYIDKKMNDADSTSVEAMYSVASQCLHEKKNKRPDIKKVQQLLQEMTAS
Experimental: 3.1. Phosphorylation IC50 Determination for Human IRAK-4
The phosphorylation of the substrate RIP140 (SEQ ID1) by IRAK4 at Km ATP was detected with the ADP-Glo Kinase Assay (Promega, Cat #V9103), a luminescent kinase assay which measures the ADP formed from a kinase reaction. (Zegzouti et al. 2009) In a second step the kinase reaction was terminated and all the remaining ATP was depleted. In a final step the ADP was converted into ATP and this newly synthesized ATP was measured by using a luciferase/luciferin reaction with a luminescent reader. The luminescent signal positively correlated with kinase activity, in particular kinase inhibition giving a decrease of the luminescent signal.
For the semi-automated assay, the positive control (100% inhibition) was prepared by diluting 10 mM staurosporine stock mixture (20 μL) in water (3.8 mL) and DMSO (180 μL), thus resulting in a […] staurosporine solution at 1% DMSO (final concentration after further dilution in the kinase reaction).
For the automated assay, no pre-dilution of the 10 mM staurosporine stock was made. 10 mM staurosporine was spotted directly in the assay plate using acoustic dispensing and complemented with DMSO to result in a similar final concentration as mentioned above.
For the semi-automated assay, the negative control (0% inhibition) was prepared by mixing water (3.8 mL) and DMSO (200 μL) resulting in a final concentration of 1% DMSO after further dilution in the kinase reaction. For the automated assay no pre-dilution of DMSO was done. 100% DMSO was spotted directly on the assay plate.
The assay buffer solution was prepared at a concentration corresponding to 5 fold the final (most diluted) assay concentration by mixing a solution of 125 mM TRIS pH 7.5+0.05% Triton X-100+2.5 mM EGTA (5.27 mL) with 1M mgCl2 (72 μL), 1M DTT (57.6 μL), and 200 mM MnCl2 (360 μL).
For example, for the semi-automated method, the enzyme-substrate mixture was prepared by mixing water (3999 μL), assay buffer solution (1380 μL), 1 mM RIP140 (138 μL—SEQ ID1), and 200 ng/mL IRAK 4 (3.45 μL Carna Biosciences, 09 145).
For semi-automated method, the ATP mixture was prepared at a concentration corresponding to 2.5 fold the final (most diluted) assay concentration of the semi-automated method and 1.5 fold the final (most diluted) assay concentration of the automated method. For example, for the semi-automated method, the ATP mixture was prepared by mixing water (4126 μL), assay buffer solution (1380 μL), and 10 mM ATP (13.80 μL).
The assay was performed either in a semi-automated or fully automated manner. The assay volume and the incubation time of the ADP detection were different accordingly the method used.
3.1.3.1. Semi-Automated Assay
The compounds were prepared as a serial dilution of 10 point dose responses with 1/5 dilution steps in 100% DMSO starting from 2 mM highest concentration, diluted 1/20 in water. 1 μL was transferred dry to the assay plates.
On each assay plate 32 wells of each control (positive & negative) were added, followed by 2 μL enzyme-substrate mixture.
The reaction was started by adding 2 μL diluted ATP (final concentration Km ATP) on the assay plates. Plates were centrifuged for a few seconds at 1000 rpm followed by an incubation at r.t. for 120 min.
The reactions were stopped and the unconsumed ATP was depleted by adding 5 μL ADP-glo Reagent (Promega, Cat #V9103) to the reaction. The plates were quickly centrifuged at 1000 rpm and incubated at r.t. for 40 min corresponding to full ATP depletion.
The ADP was converted back to ATP and luciferase and luciferin were introduced to detect ATP by adding 10 μL kinase detection reagent (Promega, Cat #V9103) to the reaction. The plates were centrifuged for a few seconds at 1000 rpm and incubated at r.t. for a further 30 min.
Luminescent read out was performed on an Envision luminescent reader (Perkin Elmer). […]

hERG channel = biological target: T2, hERG channel (Homo sapiens, UniProt Q12809); assay: hERG channel test - manual patch clamp assay; format: cell-based; conditions: 10 μM, HEK293 cells stably transfected with hERG, tail current
T2 construct: host or cells: HEK293
T2 sequence (Q12809 whole entry): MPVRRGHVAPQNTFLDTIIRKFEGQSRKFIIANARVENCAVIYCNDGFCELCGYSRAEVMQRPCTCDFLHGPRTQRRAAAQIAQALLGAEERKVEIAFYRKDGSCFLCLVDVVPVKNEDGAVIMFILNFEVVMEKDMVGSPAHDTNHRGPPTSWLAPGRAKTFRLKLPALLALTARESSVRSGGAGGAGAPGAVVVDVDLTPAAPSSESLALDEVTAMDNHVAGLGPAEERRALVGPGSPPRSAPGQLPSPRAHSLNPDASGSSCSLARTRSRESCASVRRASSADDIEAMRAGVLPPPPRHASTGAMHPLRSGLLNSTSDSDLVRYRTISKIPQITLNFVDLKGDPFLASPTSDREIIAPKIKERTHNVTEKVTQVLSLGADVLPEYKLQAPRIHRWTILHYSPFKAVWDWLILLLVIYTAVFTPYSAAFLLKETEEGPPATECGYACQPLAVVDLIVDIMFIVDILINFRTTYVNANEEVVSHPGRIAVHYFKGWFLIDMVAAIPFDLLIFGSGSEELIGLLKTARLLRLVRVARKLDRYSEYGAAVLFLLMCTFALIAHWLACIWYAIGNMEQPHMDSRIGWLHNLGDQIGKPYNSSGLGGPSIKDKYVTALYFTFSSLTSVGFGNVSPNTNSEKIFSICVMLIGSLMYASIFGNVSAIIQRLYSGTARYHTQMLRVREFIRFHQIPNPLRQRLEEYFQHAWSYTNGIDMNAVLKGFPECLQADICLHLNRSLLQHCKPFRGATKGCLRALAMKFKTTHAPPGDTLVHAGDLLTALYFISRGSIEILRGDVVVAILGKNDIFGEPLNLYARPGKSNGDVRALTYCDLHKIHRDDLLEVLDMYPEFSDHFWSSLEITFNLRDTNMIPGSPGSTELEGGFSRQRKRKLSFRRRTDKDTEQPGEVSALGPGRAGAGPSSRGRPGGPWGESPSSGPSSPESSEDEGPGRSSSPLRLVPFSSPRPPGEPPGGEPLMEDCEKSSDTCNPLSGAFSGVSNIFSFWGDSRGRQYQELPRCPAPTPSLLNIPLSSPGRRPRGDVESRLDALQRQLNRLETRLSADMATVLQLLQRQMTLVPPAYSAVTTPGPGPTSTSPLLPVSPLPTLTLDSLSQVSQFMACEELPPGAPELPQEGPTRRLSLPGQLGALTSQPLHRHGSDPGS
Experimental: 4.7 hERG Channel Test—Manual Patch Clamp Assay
The aim of this assay is to determine the in-vitro effects of a test compound on hERG current ([…]) expressed in Human Embryonic Kidney (HEK) cells (evaluation of the blocking profile of test substance on the IKr-like potassium current mediated by hERG channel stably transfected in a human cell line), which is linked to cardiac safety.
The test substance is dissolved in pure dimethylsulfoxide (DMSO) by cold stirring to give a stock solution concentrated 333-fold as compared with the highest concentration to be tested. This stock solution is used to prepare the other stock solutions in DMSO. Each stock solution is used to prepare the solutions containing the final concentrations tested by dilution in extracellular solution (0.1, 1, 10 and 100 μM). Final concentration of DMSO should not not exceed 0.3%.
All formulations are prepared in glass containers.
If a slight opalescence persists at the highest concentration, a 50 μM (instead of 100 μM) concentration is tested.
DMSO diluted in extracellular solution (at the different concentrations used in the final test substance solutions) is used as vehicle.
The extracellular solution is constituted as follows (mM): K-gluconate: 4 mM/Na-gluconate: 145 mM/Mg-gluconate: 2 mM/Ca-gluconate: 3.5 mM/HEPES: 5 mM/glucose: 5 mM/mannitol: 20 mM. The pH is adjusted with NaOH to 7.40±0.05.
Human embryonic kidney (HEK293) cells are stably transfected with the hERG clone (Creacell) and are maintained at 37° C. in a 5% CO2/95% air incubator. Cells used for the study are transferred to an experimental chamber of approximately 2 mL which is maintained at a temperature of 35±0.5° C. by a thermoelectric device (Harvard Apparatus: Type TC-344B) and mounted on the platform of an inverted microscope (Olympus: Type IX-51 or Leica DMI3000 B). Cells are continuously superfused with Tyrode's solution constituted as follows (mM): NaCl: 145/KCl: 4/HEPES: 5/glucose: 5/CaCl2:1/MgCl2: 1.
Ionic currents from hERG-transfected cells are measured using the whole cell configuration of the patch clamp technique. Glass pipettes are pulled from borosilicate glass by a vertical puller (Sutter Instruments: Type P30). Pipette tip resistance is approximately 1.5 to 3.5 MΩ when filled with internal solution constituted as follows (mM): K-gluconate: 145/Mg-gluconate: 1/EGTA: 2/HEPES:5/K2ATP: 2.
The pipettes are connected to the input stage of a patch-clamp amplifier (Axon Instruments: Multiclamp 700B-1). Stimulation, data recording and analysis are performed using specialized Axon Instruments software (pClamp 9.2.0. or pClamp 10.3.0.2).
After rupture of the cell membrane (entering whole-cell mode), cells are stimulated every 10 seconds using the following protocol: 500 ms pulse to +10 mV from a holding potential of −80 mV followed by a 500 ms pulse to −40 mV during which tail current is measured.
Once the current under control conditions is stable, recordings are taken before (control) and after addition of the test substance. The effect of the test substance on tail current is monitored continuously until steady-state is reached. The peak tail current amplitude is averaged for 3 stimuli.
The following parameters are measured: • Cell capacitance (pF). • Peak tail current amplitude (pA).
Peak tail current measurements are normalized using the cell capacitance as an index of cell surface.
The cells will be considered as valid if cell capacitance <80 pF, access resistance <20 MΩ and holding current >−200 pA.
Results are expressed as absolute values and as percentage change from control (percentage of tail current inhibition).
The test substance is studied at 4 ascending concentrations on 3 hERG-transfected cells.
The concentration of test substance inducing 50% of inhibition (IC50) of tail current is determined, if possible, from each individual concentration-response curve. The equation is of the following form: […]

Row | Mouse (Perc. remaining at 90 min) [1] | Human (Perc. remaining at 90 min) [2] | IC50 (human IRAK-4) | SMILES | hERG Manual Patch Clamp Single dose PIN (10 μM) (hERG channel)
1 | 74.1% | 99.75% | 10 to 50 nM | COc1cc2nc(CCC(C)(C)O)cn2cc1NC(=O)c1cccn(C(C)C)c1=O [Compound 22, N-[2-(3-hydroxy-3-methyl-butyl)-7-methoxy-imidazo[1,2-a]pyridin-6-yl]-1-isopropyl-2-oxo-pyridine-3-carboxamide] | –
2 | 94.55% | 94.65% | 0.1 to 5 nM | CC(C)(O)CCc1cn2cc(NC(=O)c3cccc(C(F)(F)F)n3)c(C(=O)NCCO)cc2n1 [Compound 40, 2-(3-hydroxy-3-methylbutyl)-N-(2-hydroxyethyl)-6-(6-(trifluoromethyl)picolinamido)imidazo[1,2-a]pyridine-7-carboxamide] | –

Further lines, the compound ahead of its results:

Row | SMILES | Mouse (Perc. remaining at 90 min) [1] | Human (Perc. remaining at 90 min) [2] | IC50 (human IRAK-4) | hERG Manual Patch Clamp Single dose PIN (10 μM) (hERG channel)
3 | COc1cc2nc(CCC(C)(C)O)cn2cc1NC(=O)c1cccc(CO)n1 [Compound 21, 6-(hydroxymethyl)-N-[2-(3-hydroxy-3-methyl-butyl)-7-methoxy-imidazo[1,2-a]pyridin-6-yl]pyridine-2-carboxamide] | 34.9% | 71.95% | 0.1 to 5 nM | –
4 | COc1cc2nc(CCC(C)(C)O)cn2cc1NC(=O)c1ccc(F)c(C)n1 [Compound 15, 5-fluoro-N-[2-(3-hydroxy-3-methyl-butyl)-7-methoxy-imidazo[1,2-a]pyridin-6-yl]-6-methyl-pyridine-2-carboxamide] | 60.05% | 48.5% | 0.1 to 5 nM | –
5 | CC(C)(O)CCc1cn2cc(NC(=O)c3cccc(C(F)(F)F)n3)c(C(=O)NCC(F)(F)F)cc2n1 [Compound 41, 2-(3-hydroxy-3-methylbutyl)-N-(2,2,2-trifluoroethyl)-6-(6-(trifluoromethyl)picolinamido)imidazo[1,2-a]pyridine-7-carboxamide] | – | – | 0.1 to 5 nM | −17%
6 | CC(C)(O)CCc1cn2cc(NC(=O)c3cccc(C(F)(F)F)n3)c(C(=O)N3CCC3)cc2n1 [Compound 28, N-[7-(azetidine-1-carbonyl)-2-(3-hydroxy-3-methyl-butyl)imidazo[1,2-a]pyridin-6-yl]-6-(trifluoromethyl)pyridine-2-carboxamide] | 96.25% | 93.5% | 10 to 50 nM | –
